Consider one molecule from patent US12433844B2, “Preparation method and application of tumor microparticles encapsulating metabolic inhibitors” (Union Hospital, Tongji Medical College, Huazhong University …, priority 2022, dated 2025).

Each structure is given as a SMILES string.

The test system of this test is lung metastasis. Description: Lung metastatic nodules count (H&E staining). As to conditions: compared to the PBS intervention group. The test is classed as in vivo, mice. As to the method:
In order to explore the anti-tumor effect of TMP-F combined with chemotherapy, two doses of cisplatin chemotherapy (Cis) are added during the intervention process. […] In addition, the lungs of mice are extracted, hematoxylin-eosin (H&E) staining is performed on the lungs of mice, and the number of lung metastatic nodules under the light microscope are observed and counted.

Turning to `N.N.[Cl][Pt][Cl]` [chemotherapy alone, cisplatin], the “lung metastasis (number of lung metastatic nodules)” value is “inhibits the lung metastasis”.
